SMILES strings stand for the structures. pIC50: −log10 of the molar value. Like-named read-outs stand apart in the source and are kept apart here.

25 compounds from patent US9359196B2, “Antiproliferative compositions comprising curcumin analogs and methods of producing and using same” (The Board of Regents of the University of Oklahoma, priority 2009, dated 2016) can be followed below.

For series [1], the system named is lung adenocarcinoma cell line H441. Nature of the series: Cell proliferation (hexosaminidase assay) in lung adenocarcinoma H441 cells, Example 1. The format is cell-based, human. As to the method:
Cell Proliferation Studies: In order to assess the anti-proliferative activity of the synthesized compounds, an in vitro cell culture system of lung adenocarcinoma cell line H441 was used. The cell detachment and anti-proliferative activity was measured as a decrease in hexosaminidase enzyme activity associated with remainder of the adhered cells. [Landegren, 1984] […] The concentration versus cell proliferation plots were analyzed by an exponential fit (Table 1). The results were compared with the anti-proliferative activity of compound 1.
Cell Culture and drug treatment: Human lung adenocarcinoma cell line NCI-H441 (ATCC Number: HTB-174) was obtained from the American Type Culture Collection (Manassas, Va.). H441 cells were maintained at 37° C. with 5% CO2 in McCoy's 5A Medium (Invitrogen, Carlsbad, Calif.) supplemented with 5% heat-inactivated fetal bovine serum (FBS). All media contained gentamicin at 50 μg/ml (GIBCO Laboratories, Grand Island, N.Y.). Other cells lines (PANC-1, MiaPaCa-2 and PC-3) were also similarly maintained, except that the cell culture medium was RPMI 1640 instead of McCoy's.
To evaluate the anti-proliferative activity of synthesized bis(2-fluorobenzylidene)-4-piperidone and its derivatives, the cells were seeded in 96-well flat-bottom tissue culture plates at a density of 10×10^3 cells per well. The cells were allowed to attach and grow overnight. The test compounds were solubilized in dimethyl sulfoxide (DMSO), filtered through 0.2 μm nylon filter and added to cells at 1, 10, 25 and 100 μM concentrations in culture medium supplemented with 5% FBS. The DMSO concentration was maintained at 0.1% per well. Control wells received equivalent volume of DMSO without any test compounds. The cells were allowed to remain in the treatment medium for 24, 48 and 72 hours.
Cell Proliferation: The total number of cells after the treatment period was estimated by the hexosaminidase assay. [Landegren, 1984] Briefly, the medium was removed and hexosaminidase substrate solution in citrate buffer pH 5 (7.5 mM), […] (Calbiochem, San Diego, Calif.) was added at 60 μl per well. The plate was incubated at 37° C. in 100% humidity for 30 minutes, before stopping the reaction with 90 μl of 50 mM glycine containing 5 mM of EDTA (pH 10.4). The absorbance was measured at 405 nm. The experiments were conducted in triplicate, and repeated at least twice. The data were analyzed as percent of control, where the control wells were treated with equivalent amounts of DMSO alone, and the analyzed data was presented as average±standard error of mean. The differences among mean values were deemed significant at p<0.05.
For IC50 calculations, a plot between the drug concentration and hexosaminidase activity was generated and the data was fitted either linearly or exponentially. The best fit was used for further processing of data.

The mark [2] stands for this setting: Homo sapiens, NCI-H441, 24 h of treatment, 1-100 μM tested, fitted plot, read-out: IC50 value.
Where [3] appears, read: Homo sapiens, NCI-H441, 24 h of treatment, read-out: IC50 (grouping relative to compound 1).
[4] abbreviates: 24 h of treatment, 1-100 μM tested, fitted plot, read-out: IC50 value.

For orientation: pIC50 means the IC50 on a negative log10 scale, so that one unit is a factor of ten. For `CC(=O)N1CC(=Cc2ccccc2F)C(=O)C(=Cc2ccccc2F)C1` [Compound 19, N-Acetyl-3,5-bis(2-fluorobenzylidene)-4-piperidone], the “anti-proliferative activity in words, relative to the comparator named” value in series [1] is reported as “performed slightly better than compound 1”. The negative-log IC50 (pIC50) in series [1] (setting [2]) is 4.27; in series [1] (setting [3]) it was under 4.30.
On to `O=C1C(=Cc2ccc(Cl)cc2)CNCC1=Cc1ccc(Cl)cc1` [Compound 8, 3,5-Bis(4-chlorobenzylidene)-4-piperidone], for which the “anti-proliferative activity in words, relative to the comparator named” value in series [1] is “no change in the anti-proliferative activity of 8 compared to that of 7”. Moreover, the pIC50 in series [1] (setting [2]) is 4.06; in series [1] (setting [3]), under 4.30.
For the compound `O=C1C(=Cc2ccccc2F)CN(C(=O)c2ccccc2C(=O)O)CC1=Cc1ccccc1F` [Compound 16, 2-[3,5-Bis-(2-fluorobenzylidene)-4-oxo-piperidine-1-carbonyl]-benzoic acid], the “anti-proliferative activity in words, relative to the comparator named” value in series [1] is on record as “very potent analog”. The values for the negative logarithm of the IC50 (pIC50) in series [1] (setting [2]) and in series [1] (setting [3]) were 4.25 and under 4.30, respectively.
As to `O=C(O)C=CC(=O)N1CC(=Cc2ccccc2F)C(=O)C(=Cc2ccccc2F)C1` [Compound 13, 4-[3,5-Bis-(2-fluorobenzylidene)-4-oxo-piperidin-1-yl]-4-oxo-2-butenoic acid], in series [1], the “anti-proliferative activity in words, relative to the comparator named” value is recorded as “significant enhancement in potency”. Besides, the pIC50 in series [1] (setting [2]) is 4.54; in series [1] (setting [3]), over 4.52.
For orientation: melting point means the temperature, or range, at which the solid turns liquid. Regarding `O=C(O)CCCC(=O)N1CC(=Cc2ccccc2F)C(=O)C(=Cc2ccccc2F)C1` [Compound 15, 5-[3,5-Bis-(2-fluorobenzylidene)-4-oxo-piperidin-1-yl]-5-oxo-pentanoic acid], the melting point was 167 to 168 °C. Besides, in series [1] (setting [2]), the pIC50 is 4.22. Further, the negative-log IC50 (pIC50) in series [1] (setting [3]) is under 4.30.
On to `O=C(O)CCC(=O)N1CC(=Cc2ccccc2F)C(=O)C(=Cc2ccccc2F)C1` [Compound 12], for which the pIC50 in series [1] (setting [4]) was 4.16.
As to `O=C1C(=Cc2ccc(F)cc2)CNCC1=Cc1ccc(F)cc1` [Compound 7, 3,5-Bis(4-fluorobenzylidene)-4-piperidone], in series [1] (setting [2]), the pIC50 was 4.34.
`O=C1C(=Cc2ccccc2F)CN(C(=O)C2CCCCC2C(=O)O)CC1=Cc1ccccc1F` (stereo not shown) [Compound 17, 2-[3,5-Bis-(2-fluorobenzylidene)-4-oxo-piperidine-1-carbonyl]-cyclohexanecarboxylic acid] returned a melting point of 96 to 98 °C. In series [1] (setting [2]), the pIC50 was 4.26. Further, the pIC50 in series [1] (setting [3]) was under 4.30.
In the case of `O=C1C(Cc2ccccc2F)CNCC1Cc1ccccc1F` (stereo not shown) [Compound 11, 3,5-Bis(2-fluorobenzyl)-4-piperidone], in series [1], the “anti-proliferative activity in words, relative to the comparator named” value was “significantly less anti-proliferative activity as compared to compound 1”. Moreover, the negative logarithm of the IC50 (pIC50) was 3.89 in series [1] (setting [2]) and under 4.30 in series [1] (setting [3]).
`Cc1ccc(S(=O)(=O)N2CC(=Cc3ccccc3F)C(=O)C(=Cc3ccccc3F)C2)cc1` [Compound 20, N-(4-Methylbenzenesulfonyl)-3,5-bis(2-fluorobenzylidene)-4-piperidone] came in with a melting point of 162 to 163 °C. In series [1] (setting [2]), the pIC50 was 4.30. The pIC50 in series [1] (setting [3]) was under 4.30.
Regarding `O=C1C(=Cc2ccccc2Br)CNCC1=Cc1ccccc1Br` [Compound 4, 3,5-Bis(2-bromobenzylidene)-4-piperidone], the negative-log IC50 (pIC50) in series [1] (setting [2]) was 5.22; in series [1] (setting [3]) it was over 4.52.
For the compound `O=C1C(=Cc2ccccc2[N+](=O)[O-])CNCC1=Cc1ccccc1[N+](=O)[O-]` [Compound 5, 3,5-Bis(2-nitrobenzylidene)-4-piperidone], the “anti-proliferative activity in words, relative to the comparator named” value in series [1] was “the activity remained more or less the same”. Further, the results for the pIC50 in series [1] (setting [2]) and in series [1] (setting [3]) were 4.03 and under 4.30, respectively.
As for `CCCCCCCCCCCCC=CC(CC(=O)O)C(=O)N1CC(=Cc2ccccc2F)C(=O)C(=Cc2ccccc2F)C1` (stereo not shown) [Compound 27, 3-[3,5-Bis-(2-fluorobenzylidene)-4-oxo-piperidine-1-carbonyl]-heptadec-4-enoic acid], in series [1], the “anti-proliferative activity in words, relative to the comparator named” value is on record as “acceptable anti-proliferative activity”. In addition, in series [1] (setting [2]), the pIC50 was 4.33.
On to `O=C1C(=Cc2ccccc2Cl)CNCC1=Cc1ccccc1Cl` [Compound 3, 3,5-Bis(2-chlorobenzylidene)-4-piperidone], for which, in series [1], the “anti-proliferative activity in words, relative to the comparator named” value is “more anti-proliferative than the 2-fluoro substituted compound 1”. For the same compound, the pIC50 in series [1] (setting [2]) was 5.30; in series [1] (setting [3]), over 4.52.
As to `O=C(O)COCC(=O)N1CC(=Cc2ccccc2F)C(=O)C(=Cc2ccccc2F)C1` [Compound 14, 2-[3,5-Bis-(2-fluorobenzylidene)-4-oxo-piperidin-1-yl]-2-oxo-ethoxyacetic acid], the “anti-proliferative activity in words, relative to the comparator named” value in series [1] was “less potent as compared to compound 15”. Further, the values for the pIC50 in series [1] (setting [2]) and in series [1] (setting [3]) were 3.51 and under 4.30, respectively.
Consider `O=C1C(=Cc2ccccc2)CNCC1=Cc1ccccc1` [Compound 2, 3,5-Bis(benzylidene)-4-piperidone], for which the values for the pIC50 in series [1] (setting [2]) and in series [1] (setting [3]) were 4.92 and over 4.52, respectively.
Take `CCCCCCCCCCCCCCCCC=CC(CC(=O)O)C(=O)N1CC(=Cc2ccccc2F)C(=O)C(=Cc2ccccc2F)C1` (stereo not shown) [Compound 28, 3-[3,5-Bis-(2-fluorobenzylidene)-4-oxo-piperidine-1-carbonyl]-heneicos-4-enoic acid]: in series [1], the “anti-proliferative activity in words, relative to the comparator named” value is given as “total loss of activity”. The negative logarithm of the IC50 (pIC50) in series [1] (setting [2]) is 4.08; in series [1] (setting [3]), under 4.30.
As to `O=C1C(=Cc2cccc(Cl)c2)CNCC1=Cc1cccc(Cl)c1` [Compound 6, 3,5-Bis(3-chlorobenzylidene)-4-piperidone], in series [1], the “anti-proliferative activity in words, relative to the comparator named” value is “little change in IC50 as compared to that of compound 1”. Further, the pIC50 in series [1] (setting [2]) was 4.30.
For the compound `O=C(CCC(=O)N1CC(=Cc2ccccc2F)C(=O)C(=Cc2ccccc2F)C1)N[C@H]1C(O)O[C@H](CO)[C@@H](O)[C@@H]1O` (stereo partly shown) [Compound 22, 4-Oxo-4-[3,5-bis(2-fluorobenzylidene-4-piperidonylcarbonyl)-2-glucosepropanamide]], in series [1], the “anti-proliferative activity in words, relative to the comparator named” value is listed as “reduced anti-proliferative activity”. Further, in series [1] (setting [4]), the negative-log IC50 (pIC50) was 4.10.
Take `O=CN1CC(=Cc2ccccc2F)C(=O)C(=Cc2ccccc2F)C1` [Compound 18, N-Formyl-3,5-bis(2-fluorobenzylidene)-4-piperidone]: the “anti-proliferative activity in words, relative to the comparator named” value in series [1] was “performed slightly better than compound 1”. Moreover, in series [1] (setting [2]), the negative-log IC50 (pIC50) was 4.31.
Take `OC1C(=Cc2ccccc2F)CNCC1=Cc1ccccc1F` (stereo not shown) [Compound 10, 3,5-Bis(2-fluorobenzylidene)-4-hydroxy-piperidine]: in series [1], the “anti-proliferative activity in words, relative to the comparator named” value was “significantly less anti-proliferative activity as compared to compound 1”. In addition, the negative logarithm of the IC50 (pIC50) in series [1] (setting [2]) is 3.91; in series [1] (setting [3]), under 4.30.
For `CCCCCCCCCCCCCCCCNC(=O)CCC(=O)N1CC(=Cc2ccccc2F)C(=O)C(=Cc2ccccc2F)C1` [Compound 24, 4-[3,5-Bis-(2-fluorobenzylidene)-4-oxo-piperidin-1-yl]-N-hexadecyl-4-oxo-butyramide], in that order: “loss of anti-proliferative activity”, 4.19 and under 4.30.
In the case of `CCCCCCCCCCC=CC(CC(=O)O)C(=O)N1CC(=Cc2ccccc2F)C(=O)C(=Cc2ccccc2F)C1` (stereo not shown) [Compound 26, 3-[3,5-Bis-(2-fluorobenzylidene)-4-oxo-piperidine-1-carbonyl]-pentadec-4-enoic acid], the “anti-proliferative activity in words, relative to the comparator named” value in series [1] was “acceptable anti-proliferative activity”. Also, the figures for the negative-log IC50 (pIC50) in series [1] (setting [2]) and in series [1] (setting [3]) were 4.24 and under 4.30, respectively.
As to `CN(C)c1ccc(C=C2CNCC(=Cc3ccc(N(C)C)cc3)C2=O)cc1` [Compound 9, 3,5-Bis[4-(N,N-dimethylaminoenzylidene)]-4-piperidone], in series [1] (setting [4]), the negative-log IC50 (pIC50) is 4.00.
`O=C(CN1CC(=Cc2ccccc2F)C(=O)C(=Cc2ccccc2F)C1)NCc1ccc(F)cc1` [Compound 23, 2-[3,5-Bis(2-fluorobenzylidene-4-piperidone-1-yl)-N-(4-fluorobenzyl)acetamide]]: the pIC50 in series [1] (setting [4]) is 4.34.
